# Reference: patent US10717968B2, “Polymerases for nucleotide analogue incorporation” (Pacific Biosciences of California, Inc., priority 2005, dated 2020)
# Legend:
# Type in all cases: biochemical
# [1] = tested on: A488dC4P; test: Assay with a single analogue at low concentration (10 μM) and three native nucleotides, A488dC4P; conditions: single analogue at 10 μM and three native nucleotides
# Experimental: (§1) The Φ29 DNA polymerase (parental enzyme or mutant) was preincubated with DNA template (72 nucleotide circular DNA including mostly repetitive sequence AGTC) with annealed DNA primer. The preincubation mix includes three native nucleotides (dTTP, dATP and dGTP) and a terminal labeled nucleotide analogue (A488dC4P or A568dC4P) at 10 μM concentration. After a short preincubation, the reaction was started with MnCl2. The reaction was stopped with EDTA, and the products were separated using agarose gel electrophoresis and stained with SYBR Gold (Invitrogen). The average length of the DNA generated with DNA polymerase was determined and used to estimate the polymerization rate. See, e.g., Table 2 Columns G and H.
# [2] = tested on: dTTP, dATP, dGTP; test: Assay with three native nucleotides (dGTP, dTTP and dATP); conditions: three native nucleotides at 20 μM; circular template, no G residues
# Experimental: as §1
# The Φ29 DNA polymerase (parental enzyme or mutant) was preincubated with DNA template (circular DNA including mostly repetitive sequence CAT, no G residues) with annealed DNA primer; the preincubation mix includes three native nucleotides (dTTP, dATP and dGTP). All subsequent steps were basically as described above in the section entitled “Assay with a single analogue at low concentration (10 μM) and three native nucleotides.” See, e.g., Table 2 Column B.
# [3] = tested on: Alexa555-C2-dT4P; test: Km and Vmax versus analogue Alexa555-C2-dT4P
# Experimental: (§2) Km and Vmax were determined for exemplary recombinant Phi29 polymerases and various nucleotide analogues.
# [4] = tested on: A488dC4P; test: Nucleotide analogue concentration dependence of the polymerization rate, A488dC4P; conditions: for A488dC4P, kel / Km: circular AGTC template, dTTP, dATP, dGTP 20 μM each; for Km as % of the Km of N62D Φ29 for A488dC4P: relative to N62D Φ29, from Table 2
# Experimental: (§3) The most promising polymerase mutants are characterized by determination of the polymerization rate and Km for A488dC4P and A568dC4P and a subset of natural nucleotides (dATP, dGTP and dTTP), using a circular template (AGTC). Velocity is measured at several different concentrations of the analogs, A488dC4P (a representative good substrate) and A568dC4P (a representative less preferred substrate).
# (§4) The Φ29 DNA polymerase (parental enzyme or mutant) was preincubated with a DNA template (72 nucleotide circular DNA including mostly repetitive sequence AGTC) with annealed DNA primer. The preincubation mix includes also three native nucleotides (dTTP, dATP and dGTP 20 μM each) and various concentrations of the terminally labeled analogue (A488dC4P or A568dC4P). All subsequent steps were basically as described above in the section entitled “Assay with a single analogue at low concentration (10 μM) and three native nucleotides.” An average length of the DNA products generated with DNA polymerase at an individual analogue concentration was determined, and the results were fitted with the equation k=kel*[S]*(Kd+[S])^−1 where k is the observed polymerization rate, kel is the polymerization rate at saturating substrate concentration (kel measures incorporation of multiple residues), and [S] is substrate concentration. See, e.g., Table 2 Columns C, D, E, and F.
# [5] = tested on: natural (native) nucleotides; test: Initial characterization: specific activity with natural (native) nucleotides
# Experimental: The recombinant polymerase is initially evaluated on the quality of the protein preparation and basic catalytic activity. The polymerase's activity is analyzed with natural (native) nucleotides, and its specific activity (units/mg) is determined. Only catalytically competent mutants are selected for the next steps.
# [6] = tested on: A633dC4P; test: Screening: rate with A633dC4P and dA, dG, dTTP; conditions: for Rate High: 25 μM A633dC4P with 20 μM dA; for Ratio (Low/High): (rate at 5 μM A633dC4P)/(rate at 25 μM A633dC4P), each with 20 μM dA, 1 mM MnCl2, higher ratio = lower Km
# [7] = tested on: Alexa633-O-dC4P; test: Km and Vmax versus analogue Alexa633-O-dC4P; conditions: Alexa633-O-dC4P (A633dC4P)
# Experimental: as §2
# [8] = tested on: DNA template (72 nucleotide circular DNA) with annealed DNA primer; test: Processivity assay; conditions: dNTP, MnCl2, heparin trap, 20 min; 1.0 minus Poff
# Excerpt: The processivity (dissociation/kb) of the polymerase is estimated in a primer extension reaction performed in the presence of “Trap” (unlabeled competitor DNA or heparin). The processivity assay is designed to select mutants that retain the capability to synthesize a long DNA product in a continuous polymerization run (without polymerization reinitiation) with natural nucleotides. Mutants with a significant decrease in processivity are not selected for the next step.
# The Φ29 DNA polymerase (parental enzyme or mutant) was preincubated with DNA template (72 nucleotide circular DNA including mostly repetitive sequence AGTC) with annealed DNA primer. After a short preincubation, the reaction was started with a starting mix including MnCl2, dNTP and heparin. Including the heparin in the reaction prevents polymerization from reinitiating after the polymerase dissociates from the template/primer, so that all generated DNA products are a result of continuous polymerization runs. After 20 min incubation, the reaction was stopped with EDTA and the products were separated using agarose gel electrophoresis and stained with SYBR Gold (Invitrogen). The DNA products were analyzed basically as described in Bibillo A, Eickbush T H. J Biol Chem. 2002 Sep. 20; 277(38):34836-45, Epub 2002 Jul. 5. The results were fitted with single exponential equation A*exp(−Poff*kb) where A is amplitude, Poff is the probability of premature polymerase dissociation, and kb is DNA length (1000 nucleotides). The probability of chain elongation (processivity) can be readily calculated by subtracting the Poff value from 1.0. See, e.g., Table 2 Column J.
# [9] = tested on: Alexa488-O-dA4P, FAM-Alexa532-O-dG4P, FAM-Alexa594-O-dT4P, Alexa633-O-dC4P; test: Screening: rate with set of four nucleotide analogues; conditions: four analogues at 10 μM each, 1 mM MnCl2
# [10] = tested on: A488dA4P, A633dC4P, A546dG4P, A594dT4P; test: Assay with four terminally labeled nucleotide analogs; conditions: four terminally labeled analogs all at 10 μM
# Experimental: Polymerization rate (bases/min) with four analogues at 10 μM (A488dA4P, A633dC4P, A546dG4P and A594dT4P) and circular template (AGTC, a 72mer circular template largely consisting of a repeating AGTC motif) is determined.
# The procedure is basically as described above in the section entitled “Assay with a single analogue at low concentration (10 μM) and three native nucleotides,” with the exception that in this assay all nucleotides are terminally labeled (A488dA4P, A633dC4P, A546dG4P, A594dT4P all at 10 μM). See, e.g., Table 2 Column I.
# [11] = tested on: A568dC4P; test: Assay with a single analogue at low concentration (10 μM) and three native nucleotides, A568dC4P; conditions: single analogue at 10 μM and three native nucleotides
# Experimental: as §1
# [12] = tested on: A568dC4P; test: Nucleotide analogue concentration dependence of the polymerization rate, A568dC4P; conditions: for A568dC4P, kel / Km: circular AGTC template, dTTP, dATP, dGTP 20 μM each; for Km as % of the Km of N62D Φ29 for A568dC4P: relative to N62D Φ29, from Table 2
# Experimental: as §3, §4
# [13] = tested on: Alexa532-O-dG4P; test: Km and Vmax versus analogue Alexa532-O-dG4P
# Experimental: as §2
# [14] = tested on: A594-dT4P; test: FRET stopped flow assay, rates of binding and product release; conditions: nucleotide analogue A594-dT4P
# Experimental: Rates of binding and product release were determined for exemplary recombinant Phi29 polymerases with nucleotide analogue A594-dT4P using a FRET stopped flow assay as schematically illustrated in FIG. 7A. Results are depicted graphically in FIGS. 7B-D for Phi29 N62D (FIG. 7B), N62D:E375Y (FIG. 7C), and N62D:E375W (FIG. 7D).
# [15] = tested on: Alexa568-dA4P; test: FRET stopped flow assay, branching rate; conditions: dideoxy-terminated primer, native dATP trap
# Experimental: Relative branching rate (dissociation of the analogue without incorporation, i.e., substrate dissociation) was also determined for exemplary recombinant Phi29 polymerases with nucleotide analogue Alexa568-dA4P (also called A568-dA4P), using a FRET stopped flow assay as schematically illustrated in FIG. 8A. In this technique, a template with a FRET donor dye compatible for FRET with the corresponding dye on the nucleotide analogue is employed. The primer has a dideoxy-termination at the 3′ end to prevent incorporation. The analogue is pre-mixed with the enzyme-template-dideoxy primer complex. In the stopped flow apparatus, this preformed complex is rapidly mixed with the corresponding native nucleotide (native dATP, in this example) in excess which serves as a “trap” to prevent rebinding of the analogue after it dissociates. The increase in donor dye fluorescence is monitored as a means of monitoring the dissociation/branching rate of the analogue.
Substance,Product Release Rate [14] [s⁻¹],"A488dC4P, V at 10 μM [1]","dTTP, dATP, dGTP (no G fork) V at 20 μM [2]",Km [3] [µM],"A488dC4P, kel [4] [bp/min]",Km [4] [µM],Km as % of the Km of N62D Φ29 for A488dC4P [4],Specific Activity [5],Rate High [6],Ratio (Low/High) [6],Km [7] [µM],Processivity [8] [kb^−1],Hz Rate [9] [Hz],"A488dA4P, A633dC4P, A546dG4P, A594dT4P, V at 10 μM [10]","A568dC4P, V at 10 μM [11]","A568dC4P, kel [12]",Km [12] [µM],Km as % of the Km of N62D Φ29 for A568dC4P [12],Km [13] [µM],Branching Rate [15] [s⁻¹],also measured
"His-E375H-N62D: Phi 29 polymerase with E375H and N62D mutations (SEQ ID NOs:4, 25)",–,411,780,15,950,8,about 40%,"10,945,000 units/mg",510.1,0.445,17,0.9510,9.4,123,366,930,11,about 15%,–,–,–
"His-E375S-N62D: Phi 29 polymerase with E375S and N62D mutations (SEQ ID NOs:5, 26)",–,420,940,–,1190,15,about 75%,"10,961,000 units/mg",528.4,0.335,16.5,0.9815,5.9,74,332,1300,28,about 38%,40,–,–
N62D: E375Y: Phi29 polymerase with E375Y and N62D mutations,117,–,–,6.6,–,–,–,–,498.5,0.694,2.5,–,12.1,–,–,–,–,–,18,31,rates of binding and product release compared with the parent enzyme [14]: increased rates of binding and product release

# The next lines start with results.
Product Release Rate [14] [s⁻¹],Substance,"A488dC4P, V at 10 μM [1]","dTTP, dATP, dGTP (no G fork) V at 20 μM [2]",Km [3] [µM],"A488dC4P, kel [4] [bp/min]",Km [4] [µM],Km as % of the Km of N62D Φ29 for A488dC4P [4],Specific Activity [5],Rate High [6],Ratio (Low/High) [6],Km [7] [µM],Processivity [8] [kb^−1],Hz Rate [9] [Hz],"A488dA4P, A633dC4P, A546dG4P, A594dT4P, V at 10 μM [10]","A568dC4P, V at 10 μM [11]","A568dC4P, kel [12]",Km [12] [µM],Km as % of the Km of N62D Φ29 for A568dC4P [12],Km [13] [µM],Branching Rate [15] [s⁻¹],also measured
76,N62D: E375W: Phi29 polymerase with E375W and N62D mutations,–,–,5,–,–,–,–,699.4,0.677,1.8,–,19.1,–,–,–,–,–,16,43,rates of binding and product release compared with the parent enzyme [14]: increased rates of binding and product release
55,"N62D: N62D Phi29 DNA polymerase, parent enzyme in Tables 4, 6 and 7; tag not stated [reference compound]",–,–,20,–,–,–,–,–,–,23,–,–,–,–,–,–,–,68,90,–
